Measured values from the supplement of paper PMC13380429.

Columns and labels:
Conditions in all cases: 72 h
U2OS [1] = assay: drug sensitivity score (DSS) for viability; higher = more toxic; extreme values may be limits of the assay
Vero E6 [2] = assay: as above
Caco-2 [3] = assay: as above
HepG2 [4] = assay: as above
Calu-3 [5] = assay: as above
U2OS [6] = assay: cell viability relative to DMSO; higher = less toxic
Vero E6 [7] = assay: as above
Caco-2 [8] = assay: as above
HepG2 [9] = assay: as above
Calu-3 [10] = assay: as above
U2OS [11] = assay: relative viability EC50 (midpoint between 100% and the lowest measured viability); higher = less toxic
Vero E6 [12] = assay: as above
Caco-2 [13] = assay: as above
HepG2 [14] = assay: as above
Calu-3 [15] = assay: as above

SMILES	drug sensitivity score (U2OS [1])	drug sensitivity score (Vero E6 [2])	drug sensitivity score (Caco-2 [3])	drug sensitivity score (HepG2 [4])	drug sensitivity score (Calu-3 [5])	cell viability (U2OS [6]; 1 nM) [%]	cell viability (U2OS [6]; 10 nM) [%]	cell viability (U2OS [6]; 100 nM) [%]	cell viability (U2OS [6]; 1000 nM) [%]	cell viability (U2OS [6]; 10000 nM) [%]	cell viability (Vero E6 [7]; 1 nM) [%]	cell viability (Vero E6 [7]; 10 nM) [%]	cell viability (Vero E6 [7]; 100 nM) [%]	cell viability (Vero E6 [7]; 1000 nM) [%]	cell viability (Vero E6 [7]; 10000 nM) [%]	cell viability (Caco-2 [8]; 1 nM) [%]	cell viability (Caco-2 [8]; 10 nM) [%]	cell viability (Caco-2 [8]; 100 nM) [%]	cell viability (Caco-2 [8]; 1000 nM) [%]	cell viability (Caco-2 [8]; 10000 nM) [%]	cell viability (HepG2 [9]; 1 nM) [%]	cell viability (HepG2 [9]; 10 nM) [%]	cell viability (HepG2 [9]; 100 nM) [%]	cell viability (HepG2 [9]; 1000 nM) [%]	cell viability (HepG2 [9]; 10000 nM) [%]	cell viability (Calu-3 [10]; 1 nM) [%]	cell viability (Calu-3 [10]; 10 nM) [%]	cell viability (Calu-3 [10]; 100 nM) [%]	cell viability (Calu-3 [10]; 1000 nM) [%]	cell viability (Calu-3 [10]; 10000 nM) [%]	relative viability EC50 (U2OS [11]) [µM]	relative viability EC50 (Vero E6 [12]) [µM]	relative viability EC50 (Caco-2 [13]) [µM]	relative viability EC50 (HepG2 [14]) [µM]	relative viability EC50 (Calu-3 [15]) [µM]
O=c1ccc2cc(O[C@@H]3O[C@H](CO)[C@@H](O)[C@H](O)[C@H]3O)c(O)cc2o1 [esculin]	0	0	0	0	0	100	99.4	96.8	103	98.2	105	98.8	102	95.4	104	93	105	91.7	102	99.6	104	97.3	97.4	101	96	95.4	101	91	96	107	> 10	> 10	> 10	> 10	> 10
Cc1ccc(Cl)c(OC[C@H](O)CNC(C)C)c1 [1-(2-chloro-5-methylphenoxy)-3-(isopropylamino)-2-propanol]	0	0	0	0	0	104	97.2	101	106	101	104	103	95.9	104	92.8	95.1	101	99.1	91.1	94.8	93.5	100	108	104	103	96.6	101	103	108	102	> 10	> 10	> 10	> 10	> 10
N#Cc1ccc(N2CCN(C(=O)COc3ccc4[nH]cc(CCN)c4c3)CC2)cc1 [donitriptan]	0	0	0	0	0	101	102	99.4	99.7	107	95.1	101	98	98.5	107	92.4	88.7	89	97.1	104	102	105	94.1	102	94.8	89	103	107	106	111	> 10	> 10	> 10	> 10	> 10
Cc1oc(=O)oc1COC(=O)C1=C([C@H]2CCCO2)S[C@@H]2[C@@H]([C@@H](C)O)C(=O)N12 [faropenem-medoxomil]	0	0	0	0	0	98.8	96.3	98.3	98.2	99.9	94.7	94.1	97.6	92.4	97.9	95.6	93.4	96.8	93.2	97.9	103	99.2	98.1	95.1	100	99.3	94.7	102	93	98.8	> 10	> 10	> 10	> 10	> 10
C[C@@H](CCCCC(=O)Nc1ccc(C(F)(F)F)cc1)NCCc1c[nH]cn1 [HTMT]	0	0	0	0	0	99.9	100	96.9	101	106	98.3	94.7	98	100	108	97.2	92.8	87	99.4	94.1	110	95.6	104	104	98	100	97.8	100	106	100	> 10	> 10	> 10	> 10	> 10
CCC1(C)CC(=O)NC(=O)C1 [bemegride]	0	0	0	0	0	100	96.6	98.6	99.8	102	98.2	102	94.6	99.1	112	102	90.1	90.8	94.8	98.8	102	101	108	90.8	112	92.2	114	101	105	98.1	> 10	> 10	> 10	> 10	> 10
CC(=O)NCCc1c(Cc2ccccc2)[nH]c2ccccc12 [luzindole]	0	0	0	0	0	102	103	100	104	96.9	95.9	99	95.1	94.6	97.4	97.4	105	106	103	102	103	99.9	104	95.5	110	98.6	102	105	104	96.2	> 10	> 10	> 10	> 10	> 10
N#CC1(c2ccc(NC(=O)c3cccnc3NCc3ccncc3)cc2)CCCC1 [apatinib]	0	0	0	1.9	0	97.4	104	98	99.2	99.6	96.5	92	98.3	97.1	109	92.3	94.1	93.5	101	94.1	103	105	107	89.5	77.8	92.9	94.5	104	97.5	104	> 10	> 10	> 10	> 10	> 10
N=C(N)NCc1cccc(I)c1 [iobenguane]	0	0	1.7	6.1	0	97.6	99.8	99.1	95.2	95.9	100	104	111	102	87.7	114	100	118	85.6	81.4	104	91.6	79.8	79.3	83	110	98.9	107	111	98.6	> 10	> 10	> 10	> 10	> 10
CCN(CC)CCOC(=O)c1ccc(N)cc1 [procaine]	0	0	0	0	0	100	95.2	97.9	94.2	102	104	99.4	99.3	103	98.5	92.8	92.7	96.6	97	97.3	108	94.9	100	97.7	98.9	100	93.3	92	97	98.3	> 10	> 10	> 10	> 10	> 10
NCCCNCCCCNCCCN [spermine]	0	0	0	0	0	96.5	96.3	96.1	96.8	103	95.3	94.1	95.8	98.6	106	90.2	124	93.5	98	96.7	93.6	98.4	104	93.1	94.3	99.2	101	81.9	99.2	104	> 10	> 10	> 10	> 10	> 10
Cc1nccn1CCC(C(N)=O)(c1ccccc1)c1ccccc1 [imidafenacin]	0	0	0.1	0	0	99	94	101	96.4	96.5	97.9	100	95.5	99.2	97.2	99.4	91.8	92.8	87.3	93.4	101	97.3	97.5	95	92.5	106	107	106	97.9	102	> 10	> 10	> 10	> 10	> 10
O=C(Nc1cc(C(F)(F)F)cc(C(F)(F)F)c1)c1cc(Cl)ccc1O [IKK-2-inhibitor-V]	7.7	10.3	13.8	14.7	4.8	95.7	101	89.7	82.9	11.2	100	90.5	98.8	52.6	16.3	95.9	89.4	95.3	29.2	14.5	99.6	99.6	112	17.2	6.8	98.4	107	98.3	99.8	13.8	1.77	0.876	0.436	0.477	3.14
